Measurements published in US6645982B2, “Crystal forms of 6-[(4-chloro-phenyl)-hydroxy-(3-methyl-3H-imidazol-4-yl)-methyl]-4-(3-ethynyl-phenyl)-1-methyl-1H-quinolin-2-one, 2,3-dihydroxybutanedioate salts and method of production” (Pfizer Inc, priority 2000, dated 2003).

Assay: solubility in gastric fluids
Type: physicochemical
Conditions: compared to other salts of the compound of formula I, i.e., HCl

## C#Cc1cccc(-c2cc(=O)n(C)c3ccc(C(O)(c4ccc(Cl)cc4)c4cncn4C)cc23)c1.O=C(O)C(O)C(O)C(=O)O (stereo not shown) [6-[(4-chloro-phenyl)-hydroxy-(3-methyl-3H-imidazol-4-yl)-methyl]-4-(3-ethynyl-phenyl)-1-methyl-1H-quinolin-2-one, 2,3-dihydroxybutanedioate (1:1)]
  solubility in gastric fluids: improved solubility
